Series [1] concerns primary rat microglia. The series can be described thus: Cell toxicity (dead cells, size <150 μm2) in coated fibrin (cFib) assay.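 Also: share of dead cells sized under 150 µm2 at 10 µM in fibrin-stimulated microglia HTS.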 Conditions: primary microglia HTS, fibrin stimulation; decreased size (<150 μm^2) as marker of toxicity.
In series [2] the test system is fibrin- and LPS-induced microglia activation. The series can be described thus: cells. It counts as cell-based, rat. Conditions: quadrant by fibrin and LPS inhibition in HTS of 1907 compounds.
Series [3] deals with primary rat microglia. The series can be described thus: Cell toxicity (dead cells, size <150 μm2) in LPS assay. Conditions: primary microglia HTS, LPS stimulation; decreased size (<150 μm^2) as marker of toxicity.
The subject of series [4] is LPS-induced microglia activation. The series can be described thus: Image-based assay of LPS-induced microglia activation (HTS and dose response). The series is classed as cell-based, rat. As to conditions: primary microglia HTS, LPS stimulation, increased cell size (>800 μm^2) as marker of activation; for inhibition at 10 µM: Rattus norvegicus, Microglia, 48 h, read-out: LPS % inhibition.

Series [5] has as its system fibrin-induced microglia activation. The experiment in a line: Image-based assay of fibrin-induced microglia activation (HTS and dose response). The series is classed as cell-based, rat. As to conditions: primary microglia HTS, fibrin stimulation, increased cell size (>800 μm^2) as marker of activation; for inhibition at 10 µM: Rattus norvegicus, Microglia, read-out: Fibrin % inhibition.

Consider `CC(C)CCCC(C)N` (stereo not shown) [Octodrine], for which, in the series with primary rat microglia [1], the “Fibrin % cell toxicity” value amounted to 0%. Besides, in series [2], the “Quadrant (FIG. 5b)” value was “Q4”. Moreover, the “LPS % cell toxicity” value with primary rat microglia [3] stood at 0%. Further, the inhibition at 10 µM in series [4] was -2%; in series [5], 2%.
As for `C[C@@H](O)[C@@H]1NC(=O)[C@H](CCCCN)NC(=O)[C@@H](Cc2c[nH]c3ccccc23)NC(=O)[C@H](Cc2ccccc2)NC(=O)[C@@H](NC(=O)[C@H](N)Cc2ccccc2)CSSC[C@@H](C(=O)N[C@H](CO)[C@@H](C)O)NC1=O` [Octreotide], in the series on primary rat microglia [1], the “Fibrin % cell toxicity” value is on record as 1%. Further, the “Quadrant (FIG. 5b)” value in series [2] is reported as “Q4”. The “LPS % cell toxicity” value in the series with primary rat microglia [3] came out at 1%. The LPS % inhibition in series [4] is −5%. This compound also came in with a Fibrin % inhibition in series [5] of 3%.
Take `CC1COc2c(N3CCN(C)CC3)c(F)cc3c(=O)c(C(=O)O)cn1c23` (stereo not shown) [Ofloxacin]: in the series on primary rat microglia [1], the “Fibrin % cell toxicity” value was 1%. Further, the “Quadrant (FIG. 5b)” value in series [2] is given as “Q4”. The “LPS % cell toxicity” value in the series with primary rat microglia [3] stood at 0%. Moreover, the inhibition at 10 µM is 16% in series [4] and -13% in series [5].
The like results for `CO[C@H]1C[C@H](O[C@H]2[C@H](C)[C@@H](O[C@@H]3O[C@H](C)C[C@H](N(C)C)[C@H]3O)[C@@H](C)C[C@@]3(CO3)C(=O)[C@H](C)[C@@H](O)[C@@H](C)[C@@H](C)OC(=O)[C@@H]2C)O[C@@H](C)[C@@H]1O` [Oleandomycin Phosphate] were, in that order, 1%, “Q4”, 0%, 16% and -9%.
The like results for `CCCCCCCC/C=C\CCCCCCCC(=O)O` [Oleic Acid] were, in that order, 1%, “Q4”, 1%, 25% and 23%.
On the same counts, the results for `CCCc1nc(C(C)(C)O)c(C(=O)OCc2oc(=O)oc2C)n1Cc1ccc(-c2ccccc2-c2nnn[nH]2)cc1` [Olmesartan Medoxomil] are 1%, “Q4”, 0%, 12% and -5%.
In the case of `CCCc1nc(C(C)(C)O)c(C(=O)O)n1Cc1ccc(-c2ccccc2-c2nnn[nH]2)cc1` [Olmesartan], the “Fibrin % cell toxicity” value in the series on primary rat microglia [1] was found to be 0%. In addition, the “Quadrant (FIG. 5b)” value in series [2] is given as “Q4”. In addition, the “LPS % cell toxicity” value with primary rat microglia [3] turned out to be 0%. Besides, the figures for the inhibition at 10 µM in series [4] and in series [5] were 18% and -13%, respectively.
Turning to `CN(C)CC/C=C1/c2ccccc2COc2ccc(CC(=O)O)cc21` [Olopatadine], in the series on primary rat microglia [1], the “Fibrin % cell toxicity” value was found to be 1%. In addition, the “Quadrant (FIG. 5b)” value in series [2] is listed as “Q4”. Moreover, the “LPS % cell toxicity” value in the series on primary rat microglia [3] turned out to be 0%. The inhibition at 10 µM is -9% in series [4] and -42% in series [5].
The like results for `O=C(O)c1cc(/N=N/c2ccc(O)c(C(=O)O)c2)ccc1O` [Olsalazine] were, in that order, 1%, “Q4”, 1%, 22% and -36%.
Turning to `C[C@@H]1CN(c2c(F)c(F)c3c(=O)c(C(=O)O)cn(C4CC4)c3c2F)C[C@H](C)N1` [Orbifloxacin], the “Fibrin % cell toxicity” value with primary rat microglia [1] is reported as 0%. Moreover, the “Quadrant (FIG. 5b)” value in series [2] was “Q4”. For the same compound, the “LPS % cell toxicity” value in the series on primary rat microglia [3] was 0%. The inhibition at 10 µM is 15% in series [4] and -18% in series [5].
In the case of `Cc1ncc([N+](=O)[O-])n1CC(O)CCl` (stereo not shown) [Ornidazole], the “Fibrin % cell toxicity” value with primary rat microglia [1] is given as 0%. Further, the “Quadrant (FIG. 5b)” value in series [2] is recorded as “Q4”. In addition, in the series on primary rat microglia [3], the “LPS % cell toxicity” value is 0%. The inhibition at 10 µM in series [4] was 12%; in series [5] it was -22%.

The term inhibition denotes the change of the read-out against control, counted positive when it falls.

For the origin of these results see patent US20210330611A1, “THERAPY FOR NEUROLOGICAL DISEASES/DISORDERS” (priority 2020, published 2021).
